The source of these data is ChEMBL document CHEMBL1201862, “PubChem BioAssay data set” (2004).

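The compound was tested at five concentrations on cells cultured in 96-well plates, with a 48-hour exposure period. GI50 is the concentration that inhibits growth by half.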 Activity calls are given as the source filed them. Rule as the data show it: active = GI50 up to about 1.1 µM and inactive = higher.

Some test systems named below: SF-268; HL-60; RPMI-8226; SNB-75; NCI-H23; HOP-92; SF-295; UACC-257; EKVX; Malme-3M; IGROV-1; RXF 393; SK-MEL-5; UO-31; HCC 2998; KM12; HT-29; OVCAR-5; HCT-15; MDA-MB-435.
Common to all, as to assay: NCI tumour cell line growth inhibition, 48 h

For the molecule `COc1cc(C2C(C(=O)Nc3ccc(Cl)c(Cl)c3)=C(C)NC(C)=C2C(=O)Nc2ccc(Cl)c(Cl)c2)ccc1O`, the GI50 in the assay with SF-268 was 11.7 µM (inactive); with HL-60, 4.38 µM (inactive); in the assay with RPMI-8226, 3.89 µM (inactive); in the assay on SNB-75 it was 10.3 µM (inactive); in the assay with NCI-H23, 12.5 µM (inactive); with HOP-92, 2.6 µM (inactive). The GI50 was 18.4 µM (inactive) in the assay with SF-295; 13.8 µM (inactive) with UACC-257; 10.3 µM (inactive) in the assay on EKVX; 12.6 µM (inactive) in the assay on Malme-3M; 14.2 µM (inactive) in the assay with IGROV-1; 2.64 µM (inactive) in the assay on RXF 393. Further, the GI50 with SK-MEL-5 is 12.2 µM (inactive); with UO-31, 12 µM (inactive); in the assay on HCC 2998, 11.4 µM (inactive); with KM12, 11.7 µM (inactive); in the assay with HT-29 it was 15.1 µM (inactive); in the assay on OVCAR-5 it was 19.4 µM (inactive).

Regarding `C/C=C(/CCCCNCCCC)[Si](C)(C)C`, the GI50 with SF-268 was 12.3 µM (inactive); in the assay with HL-60, 6.64 µM (inactive); with HCT-15 it was 14.4 µM; with SNB-75, 13.5 µM (inactive); in the assay on NCI-H23, 16.1 µM (inactive); in the assay with HOP-92 it was 6.38 µM (inactive). The GI50 in the assay with SF-295 was 15.8 µM (inactive); in the assay on UACC-257, 15.2 µM (inactive); with EKVX, 12.4 µM (inactive); in the assay on Malme-3M, 16.9 µM (inactive); in the assay on IGROV-1, 19.2 µM (inactive); in the assay on RXF 393 it was 8.65 µM (inactive). Also, the GI50 with SK-MEL-5 was 13.3 µM (inactive); in the assay on UO-31, 17.5 µM (inactive); with HCC 2998, 5.66 µM (inactive); with KM12, 14.5 µM (inactive); in the assay on HT-29, 3.94 µM (inactive); with OVCAR-5, 14.4 µM (inactive).

On to `Cn1cc(NC(=O)c2cc(NC(=O)Nc3cc(C(=O)Nc4cc(C(=O)NCCC(=N)N)n(C)c4)n(C)c3)cn2C)cc1C(=O)NCCC(=N)N`, for which the GI50 in the assay on SF-268 was 36.4 µM (inactive); in the assay with HL-60, 60.7 µM (inactive); in the assay with HCT-15 it was more than 100 µM; in the assay with SNB-75, 40.5 µM (inactive); in the assay on NCI-H23, 37.4 µM (inactive); in the assay with HOP-92, 42.2 µM (inactive). Besides, the GI50 with SF-295 is 33.9 µM (inactive); in the assay on UACC-257, 17.7 µM (inactive); in the assay with EKVX, 52.2 µM (inactive); in the assay with Malme-3M it was 24.9 µM (inactive); in the assay with IGROV-1, 24.5 µM (inactive); with RXF 393 it was 22.4 µM (inactive). In addition, the GI50 in the assay with SK-MEL-5 was 17.4 µM (inactive); in the assay with UO-31, 33.1 µM (inactive); in the assay with HCC 2998, 48.1 µM (inactive); with KM12, 17 µM (inactive); in the assay with HT-29, > 100 µM (inactive); in the assay on OVCAR-5 it was > 100 µM (inactive).

As for `CCc1cccc(C(C)C)c1NC(=O)C(=O)C1C(=O)NC(=O)NC1=O`, the GI50 in the assay with SF-268 is > 100 µM (inactive); with HL-60, > 100 µM (inactive); in the assay with HCT-15 it was more than 100 µM; in the assay with RPMI-8226, > 100 µM (inactive); in the assay on SNB-75 it was 69.5 µM (inactive); in the assay with NCI-H23 it was > 100 µM (inactive). The GI50 in the assay with HOP-92, in the assay with SF-295, with UACC-257, in the assay with EKVX, with Malme-3M and with IGROV-1 was > 100 µM (inactive) in each case. Besides, the GI50 in the assay with RXF 393, in the assay with SK-MEL-5, in the assay with UO-31, in the assay with HCC 2998, in the assay on KM12 and in the assay with HT-29 was > 100 µM (inactive) in each case. In the assay with OVCAR-5, the GI50 was > 100 µM (inactive).

In the case of `CCOC(OC1=C(C#N)CCC1)C(C)[Se]c1ccccc1` (stereo not drawn), the GI50 was 19.8 µM (inactive) in the assay with SF-268; 21 µM (inactive) with HL-60; 15.9 µM with HCT-15; 23.3 µM (inactive) in the assay with RPMI-8226; 22.3 µM (inactive) in the assay on SNB-75; 12.9 µM (inactive) in the assay on NCI-H23. Also, the GI50 in the assay on HOP-92 was 24.4 µM (inactive); in the assay on SF-295, 22.2 µM (inactive); with UACC-257, 62.8 µM (inactive); in the assay on EKVX it was 30.5 µM (inactive); in the assay with Malme-3M, 12.7 µM (inactive); in the assay on IGROV-1, 25.8 µM (inactive). In addition, the GI50 in the assay with RXF 393 is 18 µM (inactive); in the assay with SK-MEL-5, 15.8 µM (inactive); in the assay on UO-31 it was 26.5 µM (inactive); in the assay with HCC 2998 it was 46.7 µM (inactive); with KM12, 92.9 µM (inactive); in the assay with HT-29, 42.2 µM (inactive). In the assay on OVCAR-5, the GI50 was 39.8 µM (inactive).

`Cc1ccc(-n2c(=S)[nH]c3ccc(Br)cc3c2=O)cc1`: the GI50 is > 100 µM (inactive) in the assay with SF-268; > 100 µM (inactive) in the assay on HL-60; more than 100 µM with HCT-15; > 100 µM (inactive) with RPMI-8226; > 100 µM (inactive) in the assay on SNB-75; > 100 µM (inactive) in the assay on NCI-H23. Further, the GI50 in the assay with HOP-92, with SF-295, in the assay with UACC-257, with EKVX, with Malme-3M and in the assay on IGROV-1 was > 100 µM (inactive) throughout. Moreover, the GI50 in the assay on RXF 393, in the assay on UO-31, in the assay on HCC 2998, in the assay with KM12, in the assay with HT-29 and in the assay with OVCAR-5 was > 100 µM (inactive) throughout.

Consider `CCCSc1ccc2[nH]c(/N=C/c3ccccc3)cc2c1`, for which the GI50 was 19.7 µM (inactive) in the assay with SF-268; 29 µM in the assay on HCT-15; 14.8 µM (inactive) in the assay with RPMI-8226; 20.5 µM (inactive) in the assay on SNB-75; 41.7 µM (inactive) in the assay with NCI-H23; 25.5 µM (inactive) in the assay on HOP-92. Also, the GI50 is 19.7 µM (inactive) in the assay with UACC-257; 26.9 µM (inactive) in the assay on EKVX; 16.6 µM (inactive) in the assay on Malme-3M; 31.8 µM (inactive) with IGROV-1; 16.4 µM (inactive) with RXF 393; 7.14 µM (inactive) in the assay with SK-MEL-5. Also, the GI50 in the assay with UO-31 was 30.3 µM (inactive); with MDA-MB-435 it was 5.75 µM (inactive); with HT-29 it was 22.3 µM (inactive); in the assay on OVCAR-5, 40.1 µM (inactive).

For `CC1CC(=O)C(C(O)CC2CC(=O)N(c3ccccc3)C(=O)C2)C(C)C1` (stereo not drawn), the GI50 in the assay with SF-268, in the assay on HL-60, in the assay on RPMI-8226, in the assay with SNB-75, in the assay with NCI-H23 and in the assay on HOP-92 was > 100 µM (inactive) each time. Besides, the GI50 with SF-295, in the assay with UACC-257, with EKVX, in the assay with Malme-3M, in the assay with IGROV-1 and in the assay with RXF 393 was > 100 µM (inactive) in each case. Besides, the GI50 in the assay on UO-31, in the assay with HCC 2998, in the assay with KM12, in the assay with HT-29 and in the assay with OVCAR-5 was > 100 µM (inactive) throughout.
